From the supplement of paper PMC11451515

Assays:
Experiment in all cases: AUC of viability dose-response curve (% viability x log10 dose units); higher = less sensitive
Details in all cases: 48 h
[1] = tested on: P12-Ichikawa
Procedure, shortened: (§1)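 Area under the curve was integrated by trapezoidal rule from a log-logistic fit of normalised viability, with curves exceeding full viability scaled and quality-control failures removed. The fit had four parameters over log10 doses. Viability came from CellTiter-Glo One luminescence, normalised per plate to DMSO and cell-free wells, after leukemia cells adapted to each medium (500 or 1000 cells/well, 1536-well plates) were exposed to library compounds in DMSO for 48 h at 37°C. The 11 threefold doses ran from 47 μM to 0.79 nM.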

[2] = tested on: NOMO1
Procedure, shortened: as §1

[3] = tested on: SEM cells
Procedure, shortened: as §1

[4] = RPMI 5 mM glucose + 10% dialyzed FBS

SMILES	AUC of viability dose-response curve ([1]; HPLM + 10% dialyzed FBS)	AUC of viability dose-response curve ([1]; RPMI 5 mM glucose + 10% FBS)	AUC of viability dose-response curve [1, 4]	AUC of viability dose-response curve ([2]; HPLM + 10% dialyzed FBS)	AUC of viability dose-response curve ([2]; RPMI 5 mM glucose + 10% FBS)	AUC of viability dose-response curve [2, 4]	AUC of viability dose-response curve ([3]; HPLM + 10% dialyzed FBS)	AUC of viability dose-response curve ([3]; RPMI 5 mM glucose + 10% FBS)	AUC of viability dose-response curve [3, 4]
CNc1nc(Nc2cnn([C@H]3CCN(C4COC4)C[C@@H]3F)c2Cl)ncc1C(F)(F)F	368	400	397	316	360	391	388	276	363
CC1=CC(=CC(=C1C\C2=N\CCN2)C)C(C)(C)C	473	458	463	395	420	407	443	471	460
CCCNC(=O)Nc1ccc(Oc2ncnc3cc(OC)c(OC)cc23)cc1Cl	438	433	440	419	417	424	441	402	413
COc1ccc(C(=O)CC2(O)C(=O)Nc3c(Cl)ccc(Cl)c32)cc1 (centres undefined)	388	387	406	408	416	418	391	330	388
Oc1nc(-c2ccc(C(F)(F)F)cc2)nc2c1CSCC2	464	464	436	477	441	466	438	457	449
Cc1ccccc1C(=O)Nc1ccc(C(=O)N2CCCC(O)c3cc(Cl)ccc32)c(C)c1 (centres undefined)	461	462	469	452	471	471	460	455	446
CCOC(=O)C(C)OC1=CC=CC2=C1\C=C/N(CC(=O)NC3=CC=C4OCCOC4=C3)C2=O (centres undefined)	442	452	436	441	434	442	453	441	443
Nc1c2c(nc3ccccc13)CCCC2	434	440	433	352	376	388	431	390	402
CCCCCCCCCCCCCC(=O)N[C@H](CO)[C@H](O)c1ccc([N+](=O)[O-])cc1	369	328	318	342	323	327	296	276	280
O=C(c1ccccc1)c1ccc2n1CCC2C(=O)O (centres undefined)	423	413	424	461	458	464	439	421	426
CN1\C=N/C2=CC=C(NC3=CC(=CC=C3C)NC(=O)C4=CC(=CC=C4)C(C)(C)C#N)C=C2C1=O	421	395	422	376	377	355	424	431	433
